US11111247B2, “Pyrazolopyrimidine compounds and uses thereof” (Incyte Corporation, priority 2018, dated 2021)
Where two headings read alike, the source gives them in different places.

How the values were obtained:
[1] = target: FGFR2 (P) (Homo sapiens (Human), UniProt P21802); test: FGFR Enzymatic Assay, FGFR2 phosphorylated; details: phosphorylated enzyme, ATP near or below Km
Description: (§1) The inhibitor potency of the exemplified compounds was determined in an enzyme discontinuous assay that measures peptide phosphorylation using FRET measurements to detect product formation. Inhibitors were serially diluted in DMSO and a volume of 0.2 μL was transferred to the wells of a 384-well plate. For the isoforms of FGFR (−1, −2, −3 wild-type and mutant isoforms, −4) including phosphorylated (P) and un-phosphorylated (UP) proteins, a 5 μL/well volume of enzyme diluted in assay buffer (50 mM HEPES, 10 mM MgCl2, 1 mM EGTA, 0.01% Tween-20, 5 mM DTT, pH 7.5) was added to the plate and pre-incubated with inhibitor for 5 to 15 minutes at ambient temperature. Appropriate controls (enzyme blank and enzyme with no inhibitor) were included on the plate. The reaction was initiated by the addition of a 5 μL/well volume containing both biotinylated [sequence] […] The plate was allowed to equilibrate for −10 minutes at ambient temperature before scanning on a PheraStar plate reader (BMG Labtech) instrument.
(§2) Either GraphPad prism or XLfit was used to analyze the data. The IC50 values were derived by fitting the data to a four parameter logistic equation producing a sigmoidal dose-response curve with a variable Hill coefficient. Prism equation: Y=Bottom+(Top−Bottom)/(1+10^((LogIC50−X)*Hill slope)); XLfit equation: Y=(A+((B−A)/(1+((X/C)^D)))) where X is the logarithm of inhibitor concentration and Y is the response.

[2] = target: FGFR3 (UP) (Homo sapiens (Human), UniProt P22607); test: FGFR Enzymatic Assay, FGFR3 un-phosphorylated
Description: as §1, §2

[3] = target: ALK2 (Homo sapiens (Human), UniProt Q04771); test: ALK2 Cellular Assay (phospho SMAD1 HTRF, BMP-7 stimulated HeLa cells); assay type: cell-based; details: HeLa cells, 200 ng/ml BMP-7, Phospho SMAD1 (S463/S465) HTRF; read-out: ALK2 Cellular Assay PSMAD
Sequence of ALK2 (Q04771 21-509): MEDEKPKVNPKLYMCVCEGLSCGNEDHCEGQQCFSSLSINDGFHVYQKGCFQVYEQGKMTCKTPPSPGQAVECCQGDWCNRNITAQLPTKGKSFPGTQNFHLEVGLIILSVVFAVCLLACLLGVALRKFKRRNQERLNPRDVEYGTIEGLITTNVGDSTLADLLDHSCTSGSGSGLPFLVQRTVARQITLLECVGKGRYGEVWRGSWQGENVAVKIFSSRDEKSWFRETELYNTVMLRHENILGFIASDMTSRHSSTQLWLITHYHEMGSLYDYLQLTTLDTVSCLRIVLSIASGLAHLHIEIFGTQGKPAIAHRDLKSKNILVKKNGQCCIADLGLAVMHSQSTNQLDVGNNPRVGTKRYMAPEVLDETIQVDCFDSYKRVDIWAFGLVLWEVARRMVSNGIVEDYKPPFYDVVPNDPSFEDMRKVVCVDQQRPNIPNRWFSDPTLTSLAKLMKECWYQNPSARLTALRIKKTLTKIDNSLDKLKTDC
Description: HeLa cells were cultured in MEM media with 10% FBS. […] HeLa cells were plated in 96 well flat bottomed plate at 50,000 cells per well and incubated overnight. Next day, media was removed and 50 μL of fresh complete media was added. 5 μL compound was added to cells (3 μM final concentration at highest) and incubated for 60 min at 37° C. 200 ng/ml BMP-7 was added and incubated for 30 min at 37° C. After incubation, the media was removed, washed 2×PBS, and proceeded with HTRF kit according to Cisbio HTRF kit instructions for measuring the Phospho SMAD1 (S463/S465). Finally, both the donor and acceptor were added into 384 well plates and incubated at room temperature overnight and the HTRF signal was measured via Pherastar the next day.

[4] = target: ALK2 (aa 147-end) (Homo sapiens (Human), UniProt Q04771); test: ALK2 HTRF Assay; assay type: biochemical
Sequence of ALK2 (aa 147-end) (Q04771 147-509): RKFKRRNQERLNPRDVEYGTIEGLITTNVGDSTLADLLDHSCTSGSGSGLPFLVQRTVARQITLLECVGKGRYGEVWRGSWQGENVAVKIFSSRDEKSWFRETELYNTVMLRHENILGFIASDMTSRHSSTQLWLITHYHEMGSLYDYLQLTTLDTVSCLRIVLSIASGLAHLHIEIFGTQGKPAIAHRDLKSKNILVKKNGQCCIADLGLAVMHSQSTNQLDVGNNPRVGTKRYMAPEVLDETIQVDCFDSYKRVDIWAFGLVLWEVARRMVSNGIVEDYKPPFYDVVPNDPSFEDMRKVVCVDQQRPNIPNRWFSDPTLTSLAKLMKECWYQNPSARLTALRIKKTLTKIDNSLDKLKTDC
Description: The enzymatic assays were conducted in white 384-well polystyrene plates in a final volume of 8 μL. The inhibitors were serially diluted in DMSO and added to the plate wells prior to addition of the other reaction components. The assays were carried out at 25° C. in the assay buffer (50 mM HEPES, pH 7.1, 10% Glycerol, 0.01% Brij50, 10 mM MgCl2, 1 mM EGTA, 5 mM DTT, and 0.01% BSA), containing 50 nM LANCE Ultra ULight™-DNA Topoisomerase 2-alpha peptide (Perkin Elmer TRF0130), and 3 uM, 100 uM or 1 mM ATP (as specified). […] The reaction was read on a PHERAstar FS plate reader (BMG Labtech). IC50 determination was performed by fitting percent control activity versus the log of the inhibitor concentration using the IDBS XLFit and GraphPad Prism 5.0 software.

[5] = target: FGFR1 (UP) (Homo sapiens (Human), UniProt P11362); test: FGFR Enzymatic Assay, FGFR1 un-phosphorylated
Sequence of FGFR1 (UP) (P11362 22-822): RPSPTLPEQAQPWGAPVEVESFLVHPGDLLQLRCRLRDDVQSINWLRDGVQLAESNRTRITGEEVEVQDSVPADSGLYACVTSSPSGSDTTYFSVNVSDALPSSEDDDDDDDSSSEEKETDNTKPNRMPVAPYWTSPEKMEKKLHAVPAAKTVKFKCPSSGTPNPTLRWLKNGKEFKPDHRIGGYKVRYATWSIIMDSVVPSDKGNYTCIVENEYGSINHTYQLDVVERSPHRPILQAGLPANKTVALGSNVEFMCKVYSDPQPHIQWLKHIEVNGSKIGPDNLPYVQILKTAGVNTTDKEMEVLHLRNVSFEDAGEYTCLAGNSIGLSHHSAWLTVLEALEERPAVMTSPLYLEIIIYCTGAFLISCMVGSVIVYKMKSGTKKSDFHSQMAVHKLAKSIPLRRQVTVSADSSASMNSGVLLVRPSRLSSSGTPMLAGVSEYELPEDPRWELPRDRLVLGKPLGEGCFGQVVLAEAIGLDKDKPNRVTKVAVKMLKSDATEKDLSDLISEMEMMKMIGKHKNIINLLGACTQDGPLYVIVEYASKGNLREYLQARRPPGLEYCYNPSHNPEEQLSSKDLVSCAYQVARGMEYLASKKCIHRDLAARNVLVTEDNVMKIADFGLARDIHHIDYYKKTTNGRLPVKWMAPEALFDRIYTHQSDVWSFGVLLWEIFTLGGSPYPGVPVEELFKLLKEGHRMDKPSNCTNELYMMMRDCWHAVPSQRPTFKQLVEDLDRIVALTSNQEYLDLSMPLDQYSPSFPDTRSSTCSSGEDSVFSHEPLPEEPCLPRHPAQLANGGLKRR

[6] = read-out: FGFR3 (UP) IC50, un-phosphorylated enzyme, ATP near or below Km
[7] = read-out: ALK2 3 μM IC50, 3 uM ATP
[8] = read-out: ALK2 100 μM IC50, 100 uM ATP
[9] = read-out: ALK2 1 mM IC50, 1 mM ATP
[10] = read-out: FGFR1 (UP) IC50, un-phosphorylated enzyme, ATP near or below Km

Sequence of FGFR3 (UP) (P22607 23-806): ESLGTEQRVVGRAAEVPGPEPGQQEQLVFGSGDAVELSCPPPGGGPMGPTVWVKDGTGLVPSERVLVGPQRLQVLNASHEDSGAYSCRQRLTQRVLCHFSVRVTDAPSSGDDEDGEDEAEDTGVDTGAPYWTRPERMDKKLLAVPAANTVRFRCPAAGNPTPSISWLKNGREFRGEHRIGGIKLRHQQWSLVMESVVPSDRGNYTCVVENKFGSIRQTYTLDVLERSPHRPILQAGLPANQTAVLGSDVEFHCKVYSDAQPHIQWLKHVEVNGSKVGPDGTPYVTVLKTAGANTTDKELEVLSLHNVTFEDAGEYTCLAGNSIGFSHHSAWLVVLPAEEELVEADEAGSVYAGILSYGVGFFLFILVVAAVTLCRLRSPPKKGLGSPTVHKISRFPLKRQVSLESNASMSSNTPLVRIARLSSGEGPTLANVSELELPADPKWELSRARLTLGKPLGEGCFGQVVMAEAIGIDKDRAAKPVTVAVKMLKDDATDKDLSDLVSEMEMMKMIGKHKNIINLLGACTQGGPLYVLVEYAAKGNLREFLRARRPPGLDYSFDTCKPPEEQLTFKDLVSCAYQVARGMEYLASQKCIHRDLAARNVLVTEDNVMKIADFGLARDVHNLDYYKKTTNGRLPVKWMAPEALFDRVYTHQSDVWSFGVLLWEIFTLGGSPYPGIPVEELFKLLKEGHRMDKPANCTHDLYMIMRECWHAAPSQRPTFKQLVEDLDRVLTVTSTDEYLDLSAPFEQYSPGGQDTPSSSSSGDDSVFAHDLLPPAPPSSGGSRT
Sequence of FGFR2 (P) (P21802 22-821): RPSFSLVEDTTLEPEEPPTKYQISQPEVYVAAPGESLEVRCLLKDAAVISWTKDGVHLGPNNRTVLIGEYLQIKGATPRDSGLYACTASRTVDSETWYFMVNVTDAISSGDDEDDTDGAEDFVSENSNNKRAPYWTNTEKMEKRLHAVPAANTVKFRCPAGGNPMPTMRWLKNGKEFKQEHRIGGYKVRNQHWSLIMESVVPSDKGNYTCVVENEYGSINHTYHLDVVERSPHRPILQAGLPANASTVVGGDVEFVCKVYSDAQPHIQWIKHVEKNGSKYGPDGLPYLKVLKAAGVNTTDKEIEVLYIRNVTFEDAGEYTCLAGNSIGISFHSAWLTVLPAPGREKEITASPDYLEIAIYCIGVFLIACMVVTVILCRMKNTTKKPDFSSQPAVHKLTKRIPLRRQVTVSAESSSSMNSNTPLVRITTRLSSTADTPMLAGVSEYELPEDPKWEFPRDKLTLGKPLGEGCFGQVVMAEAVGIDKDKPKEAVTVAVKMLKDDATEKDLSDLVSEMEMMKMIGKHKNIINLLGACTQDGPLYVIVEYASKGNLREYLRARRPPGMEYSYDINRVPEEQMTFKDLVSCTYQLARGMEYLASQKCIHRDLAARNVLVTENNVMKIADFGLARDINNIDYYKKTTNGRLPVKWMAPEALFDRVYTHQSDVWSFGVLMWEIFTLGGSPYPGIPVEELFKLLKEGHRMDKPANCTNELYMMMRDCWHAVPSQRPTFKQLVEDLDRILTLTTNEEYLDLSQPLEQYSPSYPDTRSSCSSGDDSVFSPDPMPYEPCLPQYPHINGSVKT

Row | SMILES | IC50 ([1]; FGFR2 (P) IC50 (nM)) [nM] | IC50 ([1]; read-out: FGFR2 (P) IC50) [nM] | IC50 [3] [nM] | IC50 [4, 7] [nM] | IC50 ([4]; ALK2 100 μM IC50, 100 uM ATP) [nM] | also measured
1 | CN1CC2CCC(C1=O)N2c1ncc2[nH]nc(-c3cnn(C4CCC4)c3)c2n1 (single isomer, unassigned) [Example 63, 8-(3-(1-Cyclobutyl-1H-pyrazol-4-yl)-1H-pyrazolo[4,3-d]pyrimidin-5-yl)-3-methyl-3,8-diazabicyclo[3.2.1]octan-2-one] | 500 to 2000 |  |  |  |  | 
2 | C[C@@H]1CN(c2ccc(-c3n[nH]c4cnc(N5[C@H](C)CCC[C@@H]5C)nc34)cn2)CCN1 [Example 1, 5-((2R,6S)-2,6-Dimethylpiperidin-1-yl)-3-(6-((R)-3-methylpiperazin-1-yl)pyridin-3-yl)-1H-pyrazolo[4,3-d]pyrimidine] |  | < 100 | 100 to 500 | < 100 |  | IC50 [2, 6]: < 100 nM; IC50 [4, 8]: < 100 nM; IC50 [4, 9]: < 100 nM; IC50 [5]: 100 to 500 nM
3 | C[C@@H]1CN(c2ccc(-c3n[nH]c4cnc(N5[C@H](C)COC[C@@H]5C)nc34)cn2)CCN1 [Example 2, (3R,5S)-3,5-Dimethyl-4-(3-(6-((R)-3-methylpiperazin-1-yl)pyridin-3-yl)-1H-pyrazolo[4,3-d]pyrimidin-5-yl)morpholine] | 100 to 500 |  | 100 to 500 | < 100 | 100 to 500 | IC50 [2, 6]: < 100 nM; IC50 ([4]; ALK2 1 mM IC50, 1 mM ATP): 500 to 2000 nM; IC50 [5]: 100 to 500 nM
4 | C[C@@H]1CN(c2ccc(-c3n[nH]c4cnc(N5[C@@H]6CCC[C@H]5[C@@H](O)C6)nc34)cn2)CCN1 [Example 4, (1R,5S,6S)-8-(3-(6-((R)-3-Methylpiperazin-1-yl)pyridin-3-yl)-1H-pyrazolo[4,3-d]pyrimidin-5-yl)-8-azabicyclo[3.2.1]octan-6-ol] |  | < 100 | 100 to 500 | < 100 |  | IC50 [2, 6]: < 100 nM; IC50 [4, 8]: < 100 nM; IC50 [4, 9]: < 100 nM; IC50 [5]: 100 to 500 nM
5 | CC(C)C(=O)N1C[C@@H](C)N(c2ncc3[nH]nc(-c4ccc(N5CCN[C@H](C)C5)nc4)c3n2)[C@@H](C)C1 [Example 5, 1-((3R,5S)-3,5-Dimethyl-4-(3-(6-((R)-3-methylpiperazin-1-yl)pyridin-3-yl)-1H-pyrazolo[4,3-d]pyrimidin-5-yl)piperazin-1-yl)-2-methylpropan-1-one] |  | > 2000 | 500 to 2000 | < 100 | 100 to 500 | IC50 [2, 6]: > 2000 nM; IC50 ([4]; ALK2 1 mM IC50, 1 mM ATP): 100 to 500 nM; IC50 [5, 10]: > 2000 nM
6 | CC(C)NC(=O)N1C[C@@H](C)N(c2ncc3[nH]nc(-c4ccc(N5CCN[C@H](C)C5)nc4)c3n2)[C@@H](C)C1 [Example 7, (3R,5S)—N-isopropyl-3,5-dimethyl-4-(3-(6-((R)-3-methylpiperazin-1-yl)pyridin-3-yl)-1H-pyrazolo[4,3-d]pyrimidin-5-yl)piperazine-1-carboxamide] | 500 to 2000 |  | 100 to 500 | < 100 | 100 to 500 | IC50 [2]: 500 to 2000 nM; IC50 ([4]; ALK2 1 mM IC50, 1 mM ATP): 100 to 500 nM; IC50 [5]: 500 to 2000 nM
7 | C[C@@H]1CN(c2ccc(-c3n[nH]c4cnc(N5[C@H](C)CN(C(=O)N(C)C)C[C@@H]5C)nc34)cn2)CCN1 [Example 8, (3R,5S)—N,N,3,5-tetramethyl-4-(3-(6-((R)-3-methylpiperazin-1-yl)pyridin-3-yl)-1H-pyrazolo[4,3-d]pyrimidin-5-yl)piperazine-1-carboxamide] |  |  | 100 to 500 | < 100 |  | IC50 [4, 8]: < 100 nM; IC50 [4, 9]: < 100 nM
8 | COC(=O)N1C[C@@H](C)N(c2ncc3[nH]nc(-c4ccc(N5CCN(C)CC5)cc4)c3n2)[C@@H](C)C1 [Example 22, Methyl (3R,5S)-3,5-dimethyl-4-(3-(4-(4-methylpiperazin-1-yl)phenyl)-1H-pyrazolo[4,3-d]pyrimidin-5-yl)piperazine-1-carboxylate] |  |  | < 100 | < 100 |  | IC50 [4, 8]: < 100 nM; IC50 [4, 9]: < 100 nM
9 | CCN1CCN(c2ccc(-c3n[nH]c4cnc(N5[C@H](C)CN(C(=O)OC)C[C@@H]5C)nc34)cc2C)CC1 [Example 25, Methyl (3R,5S)-4-(3-(4-(4-ethylpiperazin-1-yl)-3-methylphenyl)-1H-pyrazolo[4,3-d]pyrimidin-5-yl)-3,5-dimethylpiperazine-1-carboxylate] |  |  | 100 to 500 | < 100 |  | IC50 [4, 8]: < 100 nM
10 | COC(=O)N1C[C@@H](C)N(c2ncc3[nH]nc(-c4ccc(C5CCN(C)C5)cc4)c3n2)[C@@H](C)C1 (stereo partly drawn) [Example 27, Methyl (3R,5S)-3,5-dimethyl-4-(3-(4-(1-methylpyrrolidin-3-yl)phenyl)-1H-pyrazolo[4,3-d]pyrimidin-5-yl)piperazine-1-carboxylate] |  |  | 100 to 500 | < 100 |  | IC50 ([4]; ALK2 1 mM IC50, 1 mM ATP): 100 to 500 nM
11 | COC(=O)N1C[C@@H](C)N(c2ncc3[nH]nc(-c4ccc(N5CCN6C[C@@H](O)C[C@@H]6C5)cc4)c3n2)[C@@H](C)C1 [Example 35, Methyl (3R,5S)-4-(3-(4-((7S,8aR)-7-hydroxyhexahydropyrrolo[1,2-a]pyrazin-2(1H)-yl)phenyl)-1H-pyrazolo[4,3-d]pyrimidin-5-yl)-3,5-dimethylpiperazine-1-carboxylate] |  |  | 100 to 500 | < 100 |  | IC50 ([4]; ALK2 1 mM IC50, 1 mM ATP): 100 to 500 nM
12 | CN1CCN(c2ncc3[nH]nc(-c4cnn(C)c4)c3n2)CC1=O [Example 36, 1-Methyl-4-(3-(1-methyl-1H-pyrazol-4-yl)-1H-pyrazolo[4,3-d]pyrimidin-5-yl)piperazin-2-one] | 100 to 500 |  |  |  | 500 to 2000 | IC50 ([4]; ALK2 3 μM IC50, 3 uM ATP): 500 to 2000 nM
13 | Cn1cc(-c2n[nH]c3cnc(N4CCN(C5CC5)C(=O)C4)nc23)cn1 [Example 37, 1-Cyclopropyl-4-(3-(1-methyl-1H-pyrazol-4-yl)-1H-pyrazolo[4,3-d]pyrimidin-5-yl)piperazin-2-one] | 500 to 2000 |  |  |  |  | IC50 [2]: 100 to 500 nM; IC50 [5, 10]: > 2000 nM
14 | CC1C(=O)N(C)CCN1c1ncc2[nH]nc(-c3cnn(C)c3)c2n1 (centres unmarked) [Example 38, 1,3-Dimethyl-4-(3-(1-methyl-1H-pyrazol-4-yl)-1H-pyrazolo[4,3-d]pyrimidin-5-yl)piperazin-2-one] |  | < 100 |  |  | 500 to 2000 | IC50 ([4]; ALK2 3 μM IC50, 3 uM ATP): 100 to 500 nM
15 | CC1c2nccn2CCN1c1ncc2[nH]nc(-c3cnn(C)c3)c2n1 (centres unmarked) [Example 43, 3-(1-Methyl-1H-pyrazol-4-yl)-5-(8-methyl-5,6-dihydroimidazo[1,2-a]pyrazin-7(8H)-yl)-1H-pyrazolo[4,3-d]pyrimidine] | 100 to 500 |  |  |  |  | IC50 [2]: 100 to 500 nM; IC50 [5]: 500 to 2000 nM
16 | COCCN1CCN(c2ncc3[nH]nc(-c4cnn(C)c4)c3n2)C(C)C1=O (centres unmarked) [Example 48, 1-(2-Methoxyethyl)-3-methyl-4-(3-(1-methyl-1H-pyrazol-4-yl)-1H-pyrazolo[4,3-d]pyrimidin-5-yl)piperazin-2-one] | 500 to 2000 |  |  |  |  | IC50 [2]: 100 to 500 nM; IC50 [5, 10]: > 2000 nM
17 | COCCn1cc(-c2n[nH]c3cnc(N4C5CCC4C(=O)N(C)C5)nc23)cn1 (centres unmarked) [Example 53, 8-(3-(1-(2-Methoxyethyl)-1H-pyrazol-4-yl)-1H-pyrazolo[4,3-d]pyrimidin-5-yl)-3-methyl-3,8-diazabicyclo[3.2.1]octan-2-one] |  | < 100 |  |  |  | 
18 | CN1CC2CCC(C1=O)N2c1ncc2[nH]nc(-c3cnn(C4CCOCC4)c3)c2n1 (centres unmarked) [Example 54, 3-Methyl-8-(3-(1-(tetrahydro-2H-pyran-4-yl)-1H-pyrazol-4-yl)-1H-pyrazolo[4,3-d]pyrimidin-5-yl)-3,8-diazabicyclo[3.2.1]octan-2-one] |  | < 100 |  |  |  | 
19 | CN1CC2CCC(C1=O)N2c1ncc2[nH]nc(-c3cnn([C@H]4CC[C@H](O)CC4)c3)c2n1 (stereo partly drawn) [Example 55, 8-(3-(1-((1r,4S)-4-Hydroxycyclohexyl)-1H-pyrazol-4-yl)-1H-pyrazolo[4,3-d]pyrimidin-5-yl)-3-methyl-3,8-diazabicyclo[3.2.1]octan-2-one] |  | < 100 |  |  |  | 
20 | CN1CC2CCC(C1=O)N2c1ncc2[nH]nc(-c3cnn(CCN4CCOCC4)c3)c2n1 (centres unmarked) [Example 58, 3-Methyl-8-(3-(1-(2-morpholinoethyl)-1H-pyrazol-4-yl)-1H-pyrazolo[4,3-d]pyrimidin-5-yl)-3,8-diazabicyclo[3.2.1]octan-2-one] |  | < 100 |  |  | 500 to 2000 | IC50 ([4]; ALK2 3 μM IC50, 3 uM ATP): 500 to 2000 nM
